What all share (type): cell-based
One assay has as its target T1, α1A (UniProt P35348).
T1 sequence (P35348 1-466): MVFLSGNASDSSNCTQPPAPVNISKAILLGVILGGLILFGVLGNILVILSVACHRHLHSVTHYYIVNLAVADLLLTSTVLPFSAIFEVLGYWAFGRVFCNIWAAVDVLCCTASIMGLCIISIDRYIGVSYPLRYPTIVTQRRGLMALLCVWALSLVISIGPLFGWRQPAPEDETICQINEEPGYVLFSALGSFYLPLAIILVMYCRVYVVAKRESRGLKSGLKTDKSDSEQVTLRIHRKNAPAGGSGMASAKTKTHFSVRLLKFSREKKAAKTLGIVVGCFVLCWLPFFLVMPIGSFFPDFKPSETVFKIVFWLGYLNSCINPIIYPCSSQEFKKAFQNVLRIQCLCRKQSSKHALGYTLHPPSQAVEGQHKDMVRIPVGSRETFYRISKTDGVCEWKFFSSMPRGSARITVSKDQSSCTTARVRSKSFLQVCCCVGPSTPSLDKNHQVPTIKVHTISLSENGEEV
Kind of assay: FLIPR intracellular calcium assay, α1A. Particulars: for EC50: FLIPR, fluo-3 calcium, NA = not active, read-out: α1A potency (EC50); for α1A relative efficacy: value in parentheses, relative to a standard full agonist. How it is done: (§1) Selected examples were tested via the intracellular calcium assay known as Fluorometric Imaging Plate Reader (FLIPR) which involves the detection of calcium pulses by fluo-3 for analyzing function proximal to α1 receptor activation. […] The compound's activity is expressed as its relative efficacy compared to a standard full agonist.
Background: A change in cytosolic calcium serves as a functional read-out for many receptors and channels.

The target of the next assay is T2, α1B (UniProt P35368).
T2 sequence (P35368 1-520): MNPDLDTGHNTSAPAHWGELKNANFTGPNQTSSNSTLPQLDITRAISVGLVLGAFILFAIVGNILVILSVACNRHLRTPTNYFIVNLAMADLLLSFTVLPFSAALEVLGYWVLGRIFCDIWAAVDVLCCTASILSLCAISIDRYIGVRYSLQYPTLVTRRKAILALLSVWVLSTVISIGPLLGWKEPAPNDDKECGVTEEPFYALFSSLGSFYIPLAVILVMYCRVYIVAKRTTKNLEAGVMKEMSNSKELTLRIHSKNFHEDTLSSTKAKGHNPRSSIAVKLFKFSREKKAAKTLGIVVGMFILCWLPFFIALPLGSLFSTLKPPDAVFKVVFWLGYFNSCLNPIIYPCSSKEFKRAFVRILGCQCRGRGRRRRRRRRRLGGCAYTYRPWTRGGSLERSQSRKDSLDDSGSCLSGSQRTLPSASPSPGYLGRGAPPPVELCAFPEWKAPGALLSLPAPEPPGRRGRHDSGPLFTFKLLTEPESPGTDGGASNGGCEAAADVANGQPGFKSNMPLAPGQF
Kind of assay: FLIPR intracellular calcium assay, α1B. The settings on record: for EC50: FLIPR, fluo-3 calcium, NA = not active, read-out: α1B potency (EC50); for α1B relative efficacy: value in parentheses, relative to a standard full agonist. The protocol:
as §1

The next assay deals with T3, α2A (Homo sapiens, UniProt P08913).
T3 sequence (P08913 1-465): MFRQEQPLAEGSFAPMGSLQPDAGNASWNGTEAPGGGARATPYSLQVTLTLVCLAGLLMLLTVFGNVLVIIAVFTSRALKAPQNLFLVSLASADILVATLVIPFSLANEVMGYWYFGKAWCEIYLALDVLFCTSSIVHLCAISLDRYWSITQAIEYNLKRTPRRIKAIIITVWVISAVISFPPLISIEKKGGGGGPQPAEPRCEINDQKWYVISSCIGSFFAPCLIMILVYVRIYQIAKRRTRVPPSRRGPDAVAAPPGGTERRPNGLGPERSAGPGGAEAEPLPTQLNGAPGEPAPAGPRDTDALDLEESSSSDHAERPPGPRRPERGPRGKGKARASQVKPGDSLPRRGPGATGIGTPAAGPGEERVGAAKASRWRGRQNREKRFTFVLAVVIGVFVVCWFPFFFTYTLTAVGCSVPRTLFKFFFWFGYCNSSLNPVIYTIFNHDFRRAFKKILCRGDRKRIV
Kind of assay: FLIPR intracellular calcium assay, α2A. Particulars: for EC50: FLIPR, fluo-3 calcium, NA = not active, read-out: α2A potency (EC50); for α2A relative efficacy: value in parentheses, relative to a standard full agonist.

The next assay has as its target T4, α2C (Homo sapiens, UniProt P18825).
T4 sequence (P18825 1-462): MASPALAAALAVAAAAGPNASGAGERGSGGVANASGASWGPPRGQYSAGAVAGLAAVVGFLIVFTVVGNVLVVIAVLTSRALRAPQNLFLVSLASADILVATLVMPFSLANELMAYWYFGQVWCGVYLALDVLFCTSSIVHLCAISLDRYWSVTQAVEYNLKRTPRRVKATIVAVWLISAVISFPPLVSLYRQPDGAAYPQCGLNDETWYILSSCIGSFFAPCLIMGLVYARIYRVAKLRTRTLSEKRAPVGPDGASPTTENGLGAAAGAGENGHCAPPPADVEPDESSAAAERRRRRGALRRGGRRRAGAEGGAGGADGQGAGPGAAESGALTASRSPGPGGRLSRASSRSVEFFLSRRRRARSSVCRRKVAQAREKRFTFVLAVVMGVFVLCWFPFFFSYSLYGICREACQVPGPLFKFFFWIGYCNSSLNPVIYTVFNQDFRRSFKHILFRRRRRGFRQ
Kind of assay: FLIPR intracellular calcium assay, α2C. Particulars: for EC50: read-out: α2C potency (EC50); for α2C relative efficacy: value in parentheses, relative to a standard full agonist.

The target in a further assay is T5, α2B (Homo sapiens, UniProt P18089).
T5 sequence (P18089 1-450): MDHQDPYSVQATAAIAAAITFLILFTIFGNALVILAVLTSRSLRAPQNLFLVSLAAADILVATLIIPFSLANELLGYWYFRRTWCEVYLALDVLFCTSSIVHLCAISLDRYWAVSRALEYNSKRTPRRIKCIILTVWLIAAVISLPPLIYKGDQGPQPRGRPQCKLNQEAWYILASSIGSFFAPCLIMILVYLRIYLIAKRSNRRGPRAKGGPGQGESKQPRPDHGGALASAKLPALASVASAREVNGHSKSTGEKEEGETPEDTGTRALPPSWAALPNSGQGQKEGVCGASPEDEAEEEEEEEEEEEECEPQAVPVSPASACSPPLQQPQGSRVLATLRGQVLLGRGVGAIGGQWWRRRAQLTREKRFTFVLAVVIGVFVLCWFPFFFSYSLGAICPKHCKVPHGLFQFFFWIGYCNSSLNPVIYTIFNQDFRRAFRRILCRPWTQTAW
Kind of assay: FLIPR intracellular calcium assay, α2B. Particulars: for EC50: FLIPR, fluo-3 calcium, NA = not active, read-out: α2B potency (EC50); for α2B relative efficacy: value in parentheses, relative to a standard full agonist.

The mark [1] stands for this setting: FLIPR, fluo-3 calcium, NA = not active.

By EC50 is commonly meant the concentration needed to bring the measured effect to its halfway point.

For the compound `C#CC(C)NC1=NCCO1` (stereo not drawn), the EC50 at α1A is above 10000 nM; at α1B it was above 10000 nM; on α2A, 4050 nM; on α2C (setting [1]), 34.6 nM; at α2B it was 413 nM. Further, on α2A, the α2A relative efficacy was 0.20. The α2C relative efficacy at α2C came out at 0.89. Further, the α2B relative efficacy on α2B stood at 0.77.

On to `C#CC(CC)NC1=NCCO1` (stereo not drawn), for which, at α1A, the concentration for a half-maximal effect (EC50) amounted to 6540 nM and the α1A relative efficacy came to 0.78. On α2A, the EC50 came out at 54.7 nM and the α2A relative efficacy was 0.74. In addition, the EC50 on α2C (setting [1]) came to 0.004 nM. In addition, at α2C, the α2C relative efficacy came out at 0.87. For the same compound, on α2B, the 50% effective concentration (EC50) is 91.5 nM and the α2B relative efficacy was 0.82.

Take `C#CC(CCC)NC1=NCCO1` (stereo not drawn): the concentration for a half-maximal effect (EC50) on α1A was 3030 nM; at α1B it was above 10000 nM; on α2A, 664 nM; at α2C (setting [1]), 65 nM; on α2B, 386 nM. Further, the α1A relative efficacy on α1A amounted to 0.72. The α2A relative efficacy on α2A worked out at 0.44. Besides, the α2C relative efficacy on α2C is given as 0.99. Also, the α2B relative efficacy on α2B came to 0.68.

Regarding `C#CC(CC(C)C)NC1=NCCO1` (stereo not drawn), the EC50 was 7370 nM on α1A; above 10000 nM at α1B; above 10000 nM at α2A; 18.3 nM at α2C (setting [1]); 331 nM at α2B. In addition, the α1A relative efficacy at α1A is given as 0.59. In addition, the α2C relative efficacy on α2C was found to be 0.98. In addition, the α2B relative efficacy on α2B is recorded as 0.48.

As for `C#CC(NC1=NCCO1)c1ccccc1` (stereo not drawn), at α1A, the α1A relative efficacy was 0.58 (0.92). Also, at α2A, the α2A relative efficacy is given as 0.04 (0.82). Further, on α2C, the α2C relative efficacy result was “Potent (0.82)”. Further, the α2B relative efficacy on α2B is reported as 1.12 (0.61).

Regarding `C#C[C@H](NC1=NCCO1)C(C)C`, at α1A, the concentration giving a half-maximal response (EC50) came to 1200 nM and the α1A relative efficacy was 0.93. On α1B, the EC50 came to 5940 nM and the α1B relative efficacy turned out to be 0.28. Further, at α2A, the EC50 was 16.9 nM and the α2A relative efficacy was found to be 0.85. On α2C (setting [1]), the “α2C potency (EC50)” value was “Potent”. Further, the α2C relative efficacy on α2C is 1.02. Also, on α2B, the EC50 stood at 64 nM and the α2B relative efficacy amounted to 0.88.

As for `C#CC(NC1=NCCO1)C1CC1` (stereo not drawn), the EC50 is above 10000 nM at α1B, 298 nM at α2A, 127 nM on α2C (setting [1]) and 354 nM on α2B. For the same compound, at α2A, the α2A relative efficacy came out at 0.41. Moreover, the α2C relative efficacy at α2C was determined as 0.89. In addition, the α2B relative efficacy on α2B was found to be 0.71.

In the case of `C#CC(NC1=NCCO1)c1ccccc1Br` (stereo not drawn), the EC50 on α1A was 1650 nM; on α1B it was above 10000 nM; at α2A, above 10000 nM; on α2C (setting [1]), 295 nM; at α2B, 361 nM. For the same compound, the α1A relative efficacy at α1A is given as 0.34. The α2C relative efficacy at α2C turned out to be 0.81. Also, the α2B relative efficacy on α2B came to 0.36.

With `N#CC(NC1=NCCO1)c1ccccc1` (stereo not drawn), on α1A, the EC50 was determined as 1140 nM and the α1A relative efficacy was found to be 0.99. Besides, at α2A, the EC50 is 588 nM and the α2A relative efficacy was determined as 0.42. Further, the EC50 at α2C (setting [1]) was found to be 158 nM. Further, at α2C, the α2C relative efficacy is reported as 0.76. On α2B, the EC50 worked out at 215 nM and the α2B relative efficacy came out at 0.56.

For the compound `C#CC(NC1=NCCO1)c1cccc(F)c1F` (stereo not drawn), at α1A, the 50% effective concentration (EC50) was 40.8 nM and the α1A relative efficacy came out at 0.96. Besides, on α1B, the EC50 came to 3510 nM and the α1B relative efficacy was 0.54. Moreover, at α2A, the EC50 worked out at 30 nM and the α2A relative efficacy was 0.79. The concentration for a half-maximal effect (EC50) on α2C (setting [1]) stood at 6.01 nM. The α2C relative efficacy on α2C came out at 0.88. For the same compound, on α2B, the EC50 was found to be 25.9 nM and the α2B relative efficacy is recorded as 0.50.

In the case of `C#CC(NC1=NCCO1)c1cccc(Cl)c1` (stereo not drawn), on α1A, the EC50 was determined as 410 nM and the α1A relative efficacy came out at 0.81. Moreover, on α1B, the EC50 came out at 5360 nM and the α1B relative efficacy stood at 0.24. For the same compound, on α2A, the EC50 turned out to be 80.5 nM and the α2A relative efficacy is recorded as 0.88. On α2C (setting [1]), the EC50 is 382 nM. Also, on α2C, the α2C relative efficacy stood at 0.78. Further, on α2B, the concentration giving a half-maximal response (EC50) amounted to 218 nM and the α2B relative efficacy is 0.56.

For the origin of these results see patent US8080570B2, “α2B and α2C agonists” (Allergan, Inc., priority 2008, dated 2011).
